Test results taken from patent US6610835B1, “Sphingolipid derivatives and their methods of use” (Emory University, priority 1998, dated 2003).

Assays:
HT-29 cells = assay: MTT assay, induction of cell death by sphingolipids; format: cell-based, human
Experimental: The activity of sphingosine, sphinganine and 1-deoxy-5-hydroxy-sphinganine in a human colon cancer cell line was investigated. The structures of the tested compounds appear below. [drawing 4]
An MTT assay was used to determine the cytotoxicity of the compounds shown above. Only cells with intact mitochondria are able to form formazane crystals, whereas late apoptotic and necrotic cells are not. The optical density of formazane crystals is used to infer cell viability. A 15 μM treatment of 1-deoxy-5-hydroxy-sphinganine results in nearly 100% cell death in HT-29 cells after 24 hours.

[1] = target: T1, β-glucuronidase from E. coli (Escherichia coli, UniProt P05804); assay: Cleavage of GluAcCer by bacterial β-glucuronidase; format: biochemical; details: β-glucuronidase from E. coli (Sigma), supplier's instructions
T1 construct: purchased Sigma
T1 sequence (P05804 whole entry): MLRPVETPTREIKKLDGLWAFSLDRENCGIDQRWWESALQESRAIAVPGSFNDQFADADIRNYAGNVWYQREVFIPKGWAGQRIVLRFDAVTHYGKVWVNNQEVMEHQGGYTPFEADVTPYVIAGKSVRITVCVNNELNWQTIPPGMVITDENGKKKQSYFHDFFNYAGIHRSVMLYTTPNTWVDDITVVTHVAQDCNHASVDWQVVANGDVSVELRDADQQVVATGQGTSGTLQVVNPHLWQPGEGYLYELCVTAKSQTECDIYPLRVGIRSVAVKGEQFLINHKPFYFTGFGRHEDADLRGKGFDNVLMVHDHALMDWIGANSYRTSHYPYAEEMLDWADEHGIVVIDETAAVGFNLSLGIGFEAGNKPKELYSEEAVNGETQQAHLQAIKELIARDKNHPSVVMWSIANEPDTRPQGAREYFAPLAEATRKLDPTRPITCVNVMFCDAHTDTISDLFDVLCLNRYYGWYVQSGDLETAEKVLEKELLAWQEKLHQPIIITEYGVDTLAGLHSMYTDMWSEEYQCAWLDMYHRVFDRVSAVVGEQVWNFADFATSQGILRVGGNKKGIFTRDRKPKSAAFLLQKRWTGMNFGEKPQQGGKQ
Excerpt: Glucornoylceramide (GluAcCer), a ceramide with a glucuronic acid headgroup was synthesized according to the methods described above. The metabolism of GluAcCer requires β-glucuronidase, an enzyme found in bacteria but not in human intestinal cells. Accordingly, dietary GluAcCer cannot be digested in the small intestine but should be hydrolyzed in the colon by the colonic microflora.

colonic crypts = assay: Cell proliferation in colonic crypts of DMH-treated mice fed GluAcCer; format: in vivo
Experimental: Female CF1 mice were injected with DMH to initiate colonic tumors. […] The control group was fed the AIN 76A diet without supplements (one group without DMH and the other with DMH only). After four weeks, the mice were killed, the colons excised, and evaluated for the appearance of ACF.
The effect of GluAcCer on cell proliferation was also investigated since a deregulation of cell growth is observed in carcinogenesis. […] Therefore, feeding synthetic GluAcCer to mice suppresses the formation of early stages in colon carcinogenesis, possibly by restricting the proliferation to the lower half of the colonic crypt.

[2] = tested on: ACF (DMH-initiated colonic tumors); assay: Chemically (DMH) induced colon cancer model, aberrant crypt foci (ACF) after dietary supplementation; format: in vivo, Female CF1 mice; details: for ACF: four weeks after DMH, control 30.2±4.19
Experimental: Female CF1 mice were injected with DMH to initiate colonic tumors. After initiation, the mice were fed and AIN 76A diet supplemented with GluAcCer (0.025 or 0.1% of the diet). The control group was fed the AIN 76A diet without supplements (one group without DMH and the other with DMH only). After four weeks, the mice were killed, the colons excised, and evaluated for the appearance of ACF.

C3H 10T1/2 cells = details: cited from earlier work; for promotion of transformed foci by phorbol esters: levels that affected protein kinase C but not noticeably cytotoxic
[3] = tested on: renal bladder and colon cancer cell lines; details: cited from earlier work
[4] = mouse, in vivo; cited from earlier work
[5] = in vivo; cited from earlier work
DMH-induced tumors = details: cited from earlier work
[6] = tested on: aberrant colonic crypts induced by DMH; details: diet supplemented with 0.05% sphingomyelin, analyzed on week 7; cited from earlier work

Molecule: CCCCCCCCCCCCCC(O)CC(O)C(C)N (stereo not drawn) [1-deoxy-5-hydroxy-sphinganine]
- potency in inducing cell death relative to sphingosine and sphinganine (HT-29 cells): at least twice as potent
- cell death (HT-29 cells; 15 μM treatment, after 24 hours): ~100%

Molecule: CCCCCCCCCCCCC/C=C/[C@@H](O)[C@H](CO[C@@H]1O[C@H](C(=O)O)[C@@H](O)[C@H](O)[C@H]1O)NC(=O)CCCCCCCCCCCCCCC [GluAcCer, 1-O-B-D-Glucuronoyl-2N-palmitoylsphingosine]
- ability to be cleaved by bacterial enzymes [1]: cleaved by bacterial enzymes
- proliferation in the lower half of the colonic crypts (colonic crypts; GluAcCer (FIG. 13b)): reduced the proliferation
- proliferation in the upper half of the crypts (colonic crypts; both concentrations of GluAcCer in the diet (FIG. 13a)): reduced proliferation in the upper half of the crypts in a dose dependent manner
- ACF ([2]; 0.025% GluAcCer in AIN 76A diet): 21 ±2.94
- inhibition of ACF formation ([2]; 0.025 or 0.1% of the diet, versus control (FIG. 12)): 20-30%
- ACF ([2]; 0.1% GluAcCer in AIN 76A diet): 19.2±3.09

Molecule: CCCCCCCCCCCCCCC[C@@H](O)[C@@H](N)CO [sphinganine]
- treatment required to produce comparable (nearly 100%) cell death (HT-29 cells; after 24 hours): 50 µM
- number of transformed foci in cells treated with just γ-irradiation (C3H 10T1/2 cells): reduced the number of transformed foci
- promotion of transformed foci by phorbol esters (C3H 10T1/2 cells): completely blocked

Molecule: CCCCCCCCCCCCC/C=C/C(O)C(N)CO [sphingosine, D-erythro-4-trans-sphinganine]
- treatment required to produce comparable (nearly 100%) cell death (HT-29 cells; after 24 hours): 50 µM
- number of transformed foci in cells treated with just γ-irradiation (C3H 10T1/2 cells): reduced the number of transformed foci
- promotion of transformed foci by phorbol esters (C3H 10T1/2 cells): completely blocked

Molecule: Fumonisin B
- cytostatic activity [3]: has cytostatic activity

Molecule: sphingomyelin
- label appeared in liver sphingolipids [4]: About 5%
- radiolabel progressed into the colon [4]: 3-5%
- peak absorption of radiolabel after feeding [5]: 10 h
- radiolabel found in feces, mainly as ceramide [5]: 21-46%
- radiolabel recovered in lymph [5]: up to 30%
- tumor incidence versus control (DMH-induced tumors; milk sphingomyelin pilot and buttermilk sphingomyelin experiment): about half
- tumor type (adenomas versus adenocarcinomas) (DMH-induced tumors; second study with buttermilk sphingomyelin, histological analyses): more adenomas versus adenocarcinomas than for the control
- number of overall tumors (DMH-induced tumors; second study with buttermilk sphingomyelin): no reduction
- reduction in the number of aberrant colonic crypts induced by DMH [6]: 50%
